Test results published in PubChem BioAssay AID2060882 (Molecular Pharmacology Branch, DTP, NCI, 2025).
Blank lines part the entries; values can stand above or below the compound they belong to.

Test system: 898857-211-R-J1-PDC complex spheroids, growth % test/control
Experiment: Anticancer human tumor 898857-211-R-J1-PDC patient-derived melanoma cell line growth inhibition [RAS]
Settings: for IC50: curve of first compound; for viability, T/C: stronger effect = lower value
Outline: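 Agents were tested in combination matrices in half-log decrements from a top concentration at or near clinical Cmax (10 microM if undetermined). Targets were multi-cell spheroids of tumour lines plus HUVEC and MSC stromal cells.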

[1] = second compound 0.000949 µM, first compound 0.0316 µM
[2] = second compound 0.000949 µM, first compound 0.1 µM
[3] = second compound 0.000949 µM, first compound 0.316 µM
[4] = second compound 0.000949 µM, first compound 1 µM
[5] = second compound 0.000949 µM, first compound 3.16 µM
[6] = second compound 0.000949 µM, first compound 10 µM
[7] = second compound 0.003 µM, first compound 0.0316 µM
[8] = second compound 0.003 µM, first compound 0.1 µM
[9] = second compound 0.003 µM, first compound 0.316 µM
[10] = second compound 0.003 µM, first compound 1 µM
[11] = second compound 0.003 µM, first compound 3.16 µM
[12] = second compound 0.003 µM, first compound 10 µM
[13] = second compound 0.00949 µM, first compound 0.0316 µM
[14] = second compound 0.00949 µM, first compound 0.1 µM
[15] = second compound 0.00949 µM, first compound 0.316 µM
[16] = second compound 0.00949 µM, first compound 1 µM
[17] = second compound 0.00949 µM, first compound 3.16 µM
[18] = second compound 0.00949 µM, first compound 10 µM
[19] = second compound 0.03 µM, first compound 0.0316 µM
[20] = second compound 0.03 µM, first compound 0.1 µM
[21] = second compound 0.03 µM, first compound 0.316 µM
[22] = second compound 0.03 µM, first compound 1 µM
[23] = second compound 0.03 µM, first compound 3.16 µM
[24] = second compound 0.03 µM, first compound 10 µM
[25] = second compound 0.0949 µM, first compound 0.0316 µM
[26] = second compound 0.0949 µM, first compound 0.1 µM
[27] = second compound 0.0949 µM, first compound 0.316 µM
[28] = second compound 0.0949 µM, first compound 1 µM
[29] = second compound 0.0949 µM, first compound 3.16 µM
[30] = second compound 0.0949 µM, first compound 10 µM
[31] = second compound 0.3 µM, first compound 0.0316 µM
[32] = second compound 0.3 µM, first compound 0.1 µM
[33] = second compound 0.3 µM, first compound 0.316 µM
[34] = second compound 0.3 µM, first compound 1 µM
[35] = second compound 0.3 µM, first compound 3.16 µM
[36] = second compound 0.3 µM, first compound 10 µM
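Note: spheroids exposed to compound for seven days before readout.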
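Throughout, for viability, T/C: 100% = DMSO vehicle control wells.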

SMILES: CCC(CC)c1cc(NC2CCC(N)C2)n2nccc2n1 (stereo not given) + CCn1c(-c2cc(N3CCN(C)CC3)cnc2C(C)OC)c2c3cc(ccc31)-c1csc(n1)CC(NC(=O)C1CC1C)C(=O)N1CCCC(N1)C(=O)OCC(C)(C)C2
IC50 (second compound 0.000949 µM): 594 nM
IC50 (second compound 0.003 µM): 589 nM
IC50 (second compound 0.00949 µM): 609 nM
IC50 (second compound 0.03 µM): 571 nM
IC50 (second compound 0.0949 µM): 615 nM
IC50 (second compound 0.3 µM): 604 nM
viability, T/C [1]: 113%
viability, T/C [2]: 100%
viability, T/C [3]: 87.1%
viability, T/C [4]: 19.7%
viability, T/C [5]: 0.45%
viability, T/C [6]: 0.75%
viability, T/C [7]: 95.1%
viability, T/C [8]: 94%
viability, T/C [9]: 82%
viability, T/C [10]: 22.8%
viability, T/C [11]: 0.27%
viability, T/C [12]: 0.25%
viability, T/C [13]: 92.2%
viability, T/C [14]: 105%
viability, T/C [15]: 84.4%
viability, T/C [16]: 23.6%
viability, T/C [17]: 0.8%
viability, T/C [18]: 0.2%
viability, T/C [19]: 102%
viability, T/C [20]: 89.5%
viability, T/C [21]: 80.9%
viability, T/C [22]: 21.2%
viability, T/C [23]: 0.38%
viability, T/C [24]: 0.27%
viability, T/C [25]: 109%
viability, T/C [26]: 102%
viability, T/C [27]: 86.3%
viability, T/C [28]: 23.8%
viability, T/C [29]: 0.81%
viability, T/C [30]: 0.19%
viability, T/C [31]: 104%
viability, T/C [32]: 105%
viability, T/C [33]: 84.8%
viability, T/C [34]: 22.9%
viability, T/C [35]: 0.32%
viability, T/C [36]: 0.26%

SMILES: Cc1nc(N2CCC3(CC2)COC(C)C3N)c(CO)nc1Sc1ccnc(N)c1Cl (stereo not given) + CCn1c(-c2cc(N3CCN(C)CC3)cnc2C(C)OC)c2c3cc(ccc31)-c1csc(n1)CC(NC(=O)C1CC1C)C(=O)N1CCCC(N1)C(=O)OCC(C)(C)C2
IC50 (second compound 0.000949 µM): > 10000 nM
IC50 (second compound 0.003 µM): > 10000 nM
IC50 (second compound 0.00949 µM): > 10000 nM
IC50 (second compound 0.03 µM): > 10000 nM
IC50 (second compound 0.0949 µM): > 10000 nM
IC50 (second compound 0.3 µM): > 10000 nM
viability, T/C [1]: 99.6%
viability, T/C [2]: 98%
viability, T/C [3]: 93.6%
viability, T/C [4]: 94.2%
viability, T/C [5]: 94.3%
viability, T/C [6]: 86.1%
viability, T/C [7]: 96.1%
viability, T/C [8]: 92.2%
viability, T/C [9]: 105%
viability, T/C [10]: 96.4%
viability, T/C [11]: 92.2%
viability, T/C [12]: 85.5%
viability, T/C [13]: 96%
viability, T/C [14]: 110%
viability, T/C [15]: 112%
viability, T/C [16]: 103%
viability, T/C [17]: 96.9%
viability, T/C [18]: 77.7%
viability, T/C [19]: 109%
viability, T/C [20]: 107%
viability, T/C [21]: 106%
viability, T/C [22]: 97.6%
viability, T/C [23]: 99.5%
viability, T/C [24]: 74.8%
viability, T/C [25]: 115%
viability, T/C [26]: 116%
viability, T/C [27]: 110%
viability, T/C [28]: 107%
viability, T/C [29]: 107%
viability, T/C [30]: 84.7%
viability, T/C [31]: 90.7%
viability, T/C [32]: 105%
viability, T/C [33]: 99.2%
viability, T/C [34]: 111%
viability, T/C [35]: 104%
viability, T/C [36]: 76.9%

SMILES: NC1c2ccccc2OC12CCN(c1cnc3c(N4CCCc5ncccc54)n[nH]c3n1)CC2 (stereo not given) + CCn1c(-c2cc(N3CCN(C)CC3)cnc2C(C)OC)c2c3cc(ccc31)-c1csc(n1)CC(NC(=O)C1CC1C)C(=O)N1CCCC(N1)C(=O)OCC(C)(C)C2
IC50 (second compound 0.000949 µM): > 10000 nM
IC50 (second compound 0.003 µM): > 10000 nM
IC50 (second compound 0.00949 µM): > 10000 nM
IC50 (second compound 0.03 µM): > 10000 nM
IC50 (second compound 0.0949 µM): 8350 nM
IC50 (second compound 0.3 µM): 8210 nM
viability, T/C [1]: 101%
viability, T/C [2]: 87.5%
viability, T/C [3]: 91.5%
viability, T/C [4]: 81.9%
viability, T/C [5]: 81.4%
viability, T/C [6]: 51%
viability, T/C [7]: 103%
viability, T/C [8]: 87.9%
viability, T/C [9]: 101%
viability, T/C [10]: 85.7%
viability, T/C [11]: 81.3%
viability, T/C [12]: 55.5%
viability, T/C [13]: 87.7%
viability, T/C [14]: 97.7%
viability, T/C [15]: 92.1%
viability, T/C [16]: 102%
viability, T/C [17]: 74.3%
viability, T/C [18]: 56.7%
viability, T/C [19]: 91.5%
viability, T/C [20]: 87.8%
viability, T/C [21]: 93.8%
viability, T/C [22]: 73.5%
viability, T/C [23]: 81.9%
viability, T/C [24]: 50%
viability, T/C [25]: 113%
viability, T/C [26]: 99.8%
viability, T/C [27]: 102%
viability, T/C [28]: 88.5%
viability, T/C [29]: 83.9%
viability, T/C [30]: 43%
viability, T/C [31]: 112%
viability, T/C [32]: 92.6%
viability, T/C [33]: 81.3%
viability, T/C [34]: 98%
viability, T/C [35]: 78.7%
viability, T/C [36]: 43.5%

Stronger by IC50 (second compound 0.000949 µM), values ahead:

IC50 (second compound 0.000949 µM): 267 nM
IC50 (second compound 0.003 µM): 191 nM
IC50 (second compound 0.00949 µM): 261 nM
IC50 (second compound 0.03 µM): 248 nM
IC50 (second compound 0.0949 µM): 252 nM
IC50 (second compound 0.3 µM): 288 nM
SMILES: CCN1CCN(Cc2ccc(Nc3ncc(F)c(-c4cc(F)c5nc(C)n(C(C)C)c5c4)n3)nc2)CC1 + CCn1c(-c2cc(N3CCN(C)CC3)cnc2C(C)OC)c2c3cc(ccc31)-c1csc(n1)CC(NC(=O)C1CC1C)C(=O)N1CCCC(N1)C(=O)OCC(C)(C)C2
viability, T/C (second compound 0.000949 µM, first compound 0.00316 µM): 108%
viability, T/C (second compound 0.000949 µM, first compound 0.01 µM): 94.2%
viability, T/C [1]: 82.1%
viability, T/C [2]: 57.4%
viability, T/C [3]: 51.6%
viability, T/C [4]: 36.9%
viability, T/C (second compound 0.003 µM, first compound 0.00316 µM): 105%
viability, T/C (second compound 0.003 µM, first compound 0.01 µM): 96%
viability, T/C [7]: 85.8%
viability, T/C [8]: 54.9%
viability, T/C [9]: 47.7%
viability, T/C [10]: 38.1%
viability, T/C (second compound 0.00949 µM, first compound 0.00316 µM): 96.8%
viability, T/C (second compound 0.00949 µM, first compound 0.01 µM): 97.4%
viability, T/C [13]: 82.3%
viability, T/C [14]: 79.8%
viability, T/C [15]: 42.7%
viability, T/C [16]: 36.4%
viability, T/C (second compound 0.03 µM, first compound 0.00316 µM): 96.9%
viability, T/C (second compound 0.03 µM, first compound 0.01 µM): 102%
viability, T/C [19]: 75.4%
viability, T/C [20]: 67.4%
viability, T/C [21]: 46.3%
viability, T/C [22]: 29.4%
viability, T/C (second compound 0.0949 µM, first compound 0.00316 µM): 107%
viability, T/C (second compound 0.0949 µM, first compound 0.01 µM): 113%
viability, T/C [25]: 87.2%
viability, T/C [26]: 64.3%
viability, T/C [27]: 48.9%
viability, T/C [28]: 39%
viability, T/C (second compound 0.3 µM, first compound 0.00316 µM): 117%
viability, T/C (second compound 0.3 µM, first compound 0.01 µM): 110%
viability, T/C [31]: 76%
viability, T/C [32]: 70.2%
viability, T/C [33]: 48.5%
viability, T/C [34]: 33.9%

IC50 (second compound 0.000949 µM): 121 nM
IC50 (second compound 0.003 µM): 168 nM
IC50 (second compound 0.00949 µM): 138 nM
IC50 (second compound 0.03 µM): 124 nM
IC50 (second compound 0.0949 µM): 188 nM
IC50 (second compound 0.3 µM): 144 nM
SMILES: CC1(O)CCCC1n1c(=O)c(C(F)F)cc2cnc(NC3CCN(S(C)(=O)=O)CC3)nc21 (stereo not given) + CCn1c(-c2cc(N3CCN(C)CC3)cnc2C(C)OC)c2c3cc(ccc31)-c1csc(n1)CC(NC(=O)C1CC1C)C(=O)N1CCCC(N1)C(=O)OCC(C)(C)C2
viability, T/C [1]: 92.9%
viability, T/C [2]: 49.7%
viability, T/C [3]: 35.1%
viability, T/C [4]: 38.6%
viability, T/C [5]: 36.2%
viability, T/C [6]: 15.2%
viability, T/C [7]: 90.7%
viability, T/C [8]: 58.5%
viability, T/C [9]: 33.5%
viability, T/C [10]: 39.4%
viability, T/C [11]: 35.1%
viability, T/C [12]: 17.2%
viability, T/C [13]: 78.2%
viability, T/C [14]: 51%
viability, T/C [15]: 37.6%
viability, T/C [16]: 34.7%
viability, T/C [17]: 37.5%
viability, T/C [18]: 15.4%
viability, T/C [19]: 100%
viability, T/C [20]: 49.5%
viability, T/C [21]: 38.4%
viability, T/C [22]: 36.5%
viability, T/C [23]: 36.7%
viability, T/C [24]: 16.6%
viability, T/C [25]: 96%
viability, T/C [26]: 53.6%
viability, T/C [27]: 43.2%
viability, T/C [28]: 38.7%
viability, T/C [29]: 37.2%
viability, T/C [30]: 16.9%
viability, T/C [31]: 107%
viability, T/C [32]: 55.4%
viability, T/C [33]: 33.6%
viability, T/C [34]: 36.3%
viability, T/C [35]: 34.2%
viability, T/C [36]: 16%
